Experimental data as given in patent US20040224880A1, “Regulation of gastric acid secretion by inwardly rectifying k+ channels” (Beth Israel Deaconess Medical Center, Inc., priority 2001, published 2004).
“Also recorded” adds a separate entry of the source. Where two headings read alike, the source gives them in different places.

Experiments:
[1] = test system: bullfrog gastric mucosa
[2] = test system: bullfrog gastric mucosa; experiment: Acid secretion of frog (bullfrog) gastric mucosa stimulated with histamine/carbachol or forskolin; assay type: cell-based; conditions: for effect of 0.5 and 1 mM barium on acid secretion (in words): up to 3 hr; for Rate of decline in acid secretion: from the linear portion of the inhibition curve, 1 mM cimetidine, 10 mM NH4Cl, 2 mM KCN; for acid secretion with 10 mM imidazole, 3 hr: 10 mM nutrient imidazole (5 mM Iz), pH 7.1, 3 hr
[3] = test system: bullfrog gastric mucosa; assay type: cell-based
Description: FIG. 1B Electrophysiology in the bullfrog gastric mucosa. […] Removal of NH4Cl was followed by a complete recovery of R within 30 min. Data were obtained from 21 experiments and are expressed as the mean±SEM.
FIG. 1C Electrophysiology in the bullfrog gastric mucosa. […] Removal of NH4Cl was followed by a complete recovery of PD within 30 min. Data were obtained from 21 experiments and are expressed as the mean±SEM.

[4] = blocker first (0.5-5 mM barium, 1-10 mM TEA, 10-100 μM tolbutamide, 10 μM clotrimazole, imidazole, 100 μM bumetamide, amiloride, 1 mM oubain, 0.3 mM DIDS), then 10 mM NH4Cl, within 30 min
[5] = blocker first, then 10 mM NH4Cl, within 30 min
[6] = nutrient solution, vs control tissues, imidazole 100 μM Iz (200 μM nutrient), TEA 1-10 mM, tolbutamide 10-100 μM, clotrimazole 10 μM, bumetamide 100 μM, amiloride, oubain 1 mM, DIDS 0.3 mM, KCN, KCl 2 mM, methylamine
[7] = 10 mM NH4Cl within 30 min, 0.5, 1, 5 mM barium, TEA, tolbutamide, clotrimazole, vs control tissues
[8] = 10 mM NH4Cl within 30 min, barium, TEA, tolbutamide, clotrimazole, vs control tissues
[9] = blocker first (0.5 and 1 mM barium, TEA, tolbutamide, clotrimazole), then 10 mM NH4Cl, within 30 min
[10] = Time 90″: after 90 min stimulation with histamine/carbachol, start of incubation with 1 mM cimetidine, 0.3 mM omeprazole, 10 mM NH4Cl or 2 mM KCN
[11] = Time 120″, 1 mM cimetidine or 0.3 mM omeprazole added at 90 min
[12] = Time 150″, 1 mM cimetidine or 0.3 mM omeprazole added at 90 min

## N [ammonia (NH3), ammonia]
[1]; 10 mM
  NH3 lost from the nutrient solution: 61.46 µM
[1]; 30 min, 10 mM
  luminal NH3 concentration after 30 min: 0.00133 ± 0.00133 µM
  nutrient NH3 concentration at 30 min: 538.3±6.7
[2]; NH3 present in 10 mM NH4Cl at pH 7.2, basolateral exposure
  concentration of ammonia (NH3) that completely inhibits acid secretion within 30 min: 92.5 µM

## Clc1ccccc1C(c1ccccc1)(c1ccccc1)n1ccnc1 [clotrimazole]
[2]; [4]
  acid secretion after 10 mM NH4Cl added to tissues treated with the blocker: 0 μEq/hr cm^2
[2]; [5]
  effect of 10 mM NH4Cl on acid secretion of tissues treated with the blocker (in words): abolished
[2]; [6]
  effect on stimulated acid secretion (in words): no effect on stimulated acid secretion; also recorded: no significant decline
[3]; [7]
  effect on resistance (R) of stimulated tissues (in words): no effect; also recorded: not significantly different from that of control tissues
[3]; [8]
  effect on potential difference (PD) of stimulated tissues (in words): no effect
[3]; [9]
  R after 10 mM NH4Cl added to tissues treated with the blocker (in words): increase in R
[3]; [5]
  PD after 10 mM NH4Cl added to tissues treated with the blocker (in words): increase in PD

## [Ba] [barium]
[2]; 0.5 mM barium, 3 hr (180 min), from 5.23±0.29
  acid secretion with 0.5 mM barium: 4.12±0.38 μEq/hr cm^2
[2]; 1 mM barium, 3 hr (180 min), from 5.35±0.22
  acid secretion with 1 mM barium: 4.20±0.21 μEq/hr cm^2
[2]; 5 mM barium, 3 hr (180 min), from 5.19±0.22
  acid secretion with 5 mM barium: 2.89±0.33 μEq/hr cm^2
[2]; 5 mM barium, by 3 hr
  reduction of acid secretion compared to control tissues: 44%
[2]; 5 mM barium, vs control tissues
  effect of 5 mM barium on acid secretion (in words): significantly (P=0.0085) different from control tissues; also recorded: significantly different from that of control tissues
[2]; vs control tissues
  effect of 0.5 and 1 mM barium on acid secretion (in words): not different from that of control tissues; also recorded: inhibition of acid secretion does not occur
[2]; vs control tissues, listed as Barium
  effect of 0.5 and 1 mM barium on acid secretion (in words): not significantly different from that of control tissues
[2]; [4]
  acid secretion after 10 mM NH4Cl added to tissues treated with the blocker: 0 μEq/hr cm^2
[2]; [5]
  effect of 10 mM NH4Cl on acid secretion of tissues treated with the blocker (in words): abolished
[3]; [7]
  effect on resistance (R) of stimulated tissues (in words): increased significantly; also recorded: significant increase in R
[3]; [8]
  effect on potential difference (PD) of stimulated tissues (in words): unaffected; also recorded: little to no influence on PD; also recorded: not significantly different from that of control tissues
[3]; [9]
  R after 10 mM NH4Cl added to tissues treated with the blocker (in words): R increased similar to that of control tissues; also recorded: increase in R
[3]; [5]
  PD after 10 mM NH4Cl added to tissues treated with the blocker (in words): PD increased in all groups; also recorded: increase in PD

## N=C(N)NC(=O)c1nc(Cl)c(N)nc1N [amiloride]
[2]; [4]
  acid secretion after 10 mM NH4Cl added to tissues treated with the blocker: 0.188±0.140 μEq/hr cm^2
[2]; [5]
  effect of 10 mM NH4Cl on acid secretion of tissues treated with the blocker (in words): declined
[2]; [6]
  effect on stimulated acid secretion (in words): unchanged; also recorded: little effect on stimulated acid secretion; also recorded: no significant reduction in acid secretion

## C[C@@H]1O[C@@H](O[C@H]2C[C@@H](O)[C@]3(CO)[C@H]4[C@H](O)C[C@]5(C)[C@@H](C6=CC(=O)OC6)CC[C@]5(O)[C@@H]4CC[C@]3(O)C2)[C@H](O)[C@H](O)[C@H]1O [oubain]
[2]
  effect on stimulated acid secretion (in words): unchanged; also recorded: little effect on stimulated acid secretion; also recorded: no significant reduction in acid secretion
[2]; [4]
  acid secretion after 10 mM NH4Cl added to tissues treated with the blocker: 0 μEq/hr cm^2
[2]; [5]
  effect of 10 mM NH4Cl on acid secretion of tissues treated with the blocker (in words): declined

## O=S(=O)(O)c1cc(N=C=S)ccc1C=Cc1ccc(N=C=S)cc1S(=O)(=O)O [DIDS]
[2]; 0.3 mM DIDS, 60 min, from 5.25±0.12
  acid secretion with DIDS: 2.29±0.18 μEq/hr cm^2
[2]; [4]
  acid secretion after 10 mM NH4Cl added to tissues treated with the blocker: 0 μEq/hr cm^2
[2]; [5]
  effect of 10 mM NH4Cl on acid secretion of tissues treated with the blocker (in words): declined; also recorded: immediately reduced acid secretion to zero
[2]; [6]
  effect on stimulated acid secretion (in words): approximately one half of the initial rate; also recorded: partially, but not completely, inhibited

## CN/C(=N/CCSCc1nc[nH]c1C)NC#N [Cimetidine, cimetidine]
[2]; [10]
  Acid secretion: 5.59 ± 0.13 μEq/h · cm^2
[2]; [11]
  Acid secretion: 3.51 ± 0.21 μEq/h · cm^2
[2]; [12]
  Acid secretion: 0.83 ± 0.22 μEq/h · cm^2
[2]; 0.3 mM omeprazole
  Rate of decline in acid secretion: −0.07935 (μEq/h · cm^2)/min

## CC[N+](CC)(CC)CC [TEA, tetraethylammonium]
[2]
  acid secretion after 10 mM NH4Cl added to tissues treated with the blocker: 0 μEq/hr cm^2
  effect of 10 mM NH4Cl on acid secretion of tissues treated with the blocker (in words): abolished
  effect on stimulated acid secretion (in words): no effect on stimulated acid secretion; also recorded: no significant decline
[3]
  PD after 10 mM NH4Cl added to tissues treated with the blocker (in words): increase in PD
  R after 10 mM NH4Cl added to tissues treated with the blocker (in words): R increased in all tissues; also recorded: increase in R
  effect on potential difference (PD) of stimulated tissues (in words): no effect
  effect on resistance (R) of stimulated tissues (in words): no effect on R; also recorded: not significantly different from that of control tissues

## COc1ccc2[nH]c([S+]([O-])Cc3ncc(C)c(OC)c3C)nc2c1 (stereo not drawn) [Omeprazole, omeprazole]
[2]; [10]
  Acid secretion: 5.45 ± 0.30 μEq/h · cm^2
[2]; [11]
  Acid secretion: 2.03 ± 0.21 μEq/h · cm^2
[2]; [12]
  Acid secretion: 0.30 ± 0.10 μEq/h · cm^2
[2]; 0.3 mM omeprazole
  Rate of decline in acid secretion: −0.09034 (μEq/h · cm^2)/min

## CCCCNC(=O)NS(=O)(=O)c1ccc(C)cc1 [tolbutamide]
[2]; [4]
  acid secretion after 10 mM NH4Cl added to tissues treated with the blocker: 0 μEq/hr cm^2
[2]; [5]
  effect of 10 mM NH4Cl on acid secretion of tissues treated with the blocker (in words): abolished
[2]; [6]
  effect on stimulated acid secretion (in words): no effect on stimulated acid secretion; also recorded: no significant decline
[3]; [7]
  effect on resistance (R) of stimulated tissues (in words): no effect; also recorded: not significantly different from that of control tissues
[3]; [8]
  effect on potential difference (PD) of stimulated tissues (in words): no effect
[3]; [9]
  R after 10 mM NH4Cl added to tissues treated with the blocker (in words): increase in R
[3]; [5]
  PD after 10 mM NH4Cl added to tissues treated with the blocker (in words): increase in PD

## CCCCNc1cc(C(=O)O)cc(S(N)(=O)=O)c1Oc1ccccc1 [bumetamide]
[2]; [4]
  acid secretion after 10 mM NH4Cl added to tissues treated with the blocker: 0.645±0.278 μEq/hr cm^2
[2]; [5]
  effect of 10 mM NH4Cl on acid secretion of tissues treated with the blocker (in words): declined
[2]; [6]
  effect on stimulated acid secretion (in words): unchanged; also recorded: little effect on stimulated acid secretion; also recorded: no significant reduction in acid secretion

## [Cl-].[K+] [KCl, Potassium chloride]
[2]
  effect on stimulated acid secretion (in words): little effect on acid secretion

## CN [methylamine]
[1]
  flux rate of methylamine in inhibited tissues: 0.601±0.114 μM/h cm^2
  flux rate of methylamine in stimulated tissues: 2.25±0.088 μM/h cm^2
[2]
  acid secretion after methylamine washed from the nutrient solution: 3.74±0.41 μEq/hr cm^2
  acid secretion after washout, % of the starting level: 60%
  acid secretion with methylamine: 0.081±0.056 μEq/hr cm^2
  effect on stimulated acid secretion (in words): rapidly inhibits acid secretion
  least (minimum) concentration required for complete inhibition of acid secretion within 30 min: 50 mM

## c1c[nH]cn1 [imidazole]
[2]; 100 μM Iz, 3 hr (180 min), from 5.47±0.26
  acid secretion with 100 μM imidazole: 4.86±0.29 μEq/hr cm^2
[2]; 10 mM imidazole (5 mM Iz, 5 mM Iz+), 30 min, from 6.60±0.43
  acid secretion with 10 mM imidazole, 30 min: 4.60±0.43 μEq/hr cm^2
[2]; from 6.60±0.43
  acid secretion with 10 mM imidazole, 3 hr: 4.06±0.46 μEq/hr cm^2
[2]; from 6.60±0.43, listed as Iz
  acid secretion with 10 mM imidazole, 3 hr: 4.03 μEq/hr cm^2
[2]; [4]
  acid secretion after 10 mM NH4Cl added to tissues treated with the blocker: 0±0 μEq/hr cm^2
[2]; [5]
  effect of 10 mM NH4Cl on acid secretion of tissues treated with the blocker (in words): inhibited completely; also recorded: inhibited acid secretion immediately
[2]; [6]
  effect on stimulated acid secretion (in words): no effect on acid secretion; also recorded: not significantly different from that of control tissues
[2]; nutrient solution, vs control tissues, imidazole 100 μM Iz (200 μM nutrient), TEA 1-10 mM, tolbutamide 10-100 μM, clotrimazole 10 μM, bumetamide 100 μM, amiloride, oubain 1 mM, DIDS 0.3 mM, KCN, KCl 2 mM, methylamine, listed as Iz
  effect on stimulated acid secretion (in words): not significantly different from that of control tissues
